Laboratory results reported in the CheMixHub viscosity set.
± gives the uncertainty stated by the source.

Test: xn = mol fraction of the nth substance listed

Oc1ccccc1Cl + c1ccncc1
viscosity [mPa·s], 101 kPa
Settings	293.15 K	303.15 K	313.15 K
x1 = 0.07182	1.158 ± 0.011	0.994 ± 0.01	0.863 ± 0.009
x1 = 0.1451	1.459 ± 0.014	1.249 ± 0.012	1.073 ± 0.01
x1 = 0.2211	1.903 ± 0.019	1.588 ± 0.015	1.351 ± 0.013
x1 = 0.311	2.62 ± 0.026	2.152 ± 0.021	1.773 ± 0.017
x1 = 0.395	3.69 ± 0.04	2.96 ± 0.03	2.31 ± 0.023
x1 = 0.4815	5.28 ± 0.06	3.92 ± 0.04	2.98 ± 0.029
x1 = 0.5607	6.82 ± 0.08	4.72 ± 0.05	3.53 ± 0.04
x1 = 0.6186	7.8 ± 0.1	5.22 ± 0.06	3.78 ± 0.04
x1 = 0.6723	8.23 ± 0.11	5.4 ± 0.06	3.84 ± 0.04
x1 = 0.7248	8.16 ± 0.11	5.36 ± 0.06	3.78 ± 0.04
x1 = 0.7794	7.58 ± 0.1	5.04 ± 0.06	3.55 ± 0.04
x1 = 0.8837	5.97 ± 0.08	4.11 ± 0.05	2.94 ± 0.03

O=C(O)c1cc(O)c(O)c(O)c1 + CC(C)=O
viscosity [mPa·s], 101 kPa
Settings	293.15 K	298.15 K	303.15 K	308.15 K	313.15 K
x1 = 0.0034	0.361 ± 0.01	0.345 ± 0.009	0.332 ± 0.009	0.318 ± 0.009	0.307 ± 0.008
x1 = 0.0069	0.383 ± 0.01	0.367 ± 0.01	0.348 ± 0.009	0.337 ± 0.009	0.323 ± 0.009
x1 = 0.01	0.401 ± 0.011	0.388 ± 0.01	0.368 ± 0.01	0.352 ± 0.009	0.338 ± 0.009
x1 = 0.014	0.424 ± 0.011	0.409 ± 0.011	0.383 ± 0.01	0.368 ± 0.01	0.356 ± 0.01

Cn1c(=O)c2c(ncn2C)n(C)c1=O + O
Settings	viscosity [mPa·s]
293.15 K, 100 kPa, x1 = 0.000362	1.007 ± 0.012
293.15 K, 100 kPa, x1 = 0.00054	1.01 ± 0.012
293.15 K, 100 kPa, x1 = 0.00072	1.013 ± 0.012
293.15 K, 100 kPa, x1 = 0.0009	1.018 ± 0.012
293.15 K, 100 kPa, x1 = 0.00108	1.022 ± 0.012
293.15 K, 100 kPa, x1 = 0.00126	1.027 ± 0.012
293.15 K, 100 kPa, x1 = 0.00144	1.031 ± 0.012
298.15 K, 100 kPa, x1 = 0.000362	0.892 ± 0.011
298.15 K, 100 kPa, x1 = 0.00054	0.897 ± 0.011
298.15 K, 100 kPa, x1 = 0.00072	0.901 ± 0.011
298.15 K, 100 kPa, x1 = 0.0009	0.903 ± 0.011
298.15 K, 100 kPa, x1 = 0.00144	0.916 ± 0.011
298.15 K, 101 kPa, x1 = 9.11e-06	0.8903 ± 0.006
298.15 K, 101 kPa, x1 = 1.822e-05	0.8906 ± 0.006
298.15 K, 101 kPa, x1 = 7.288e-05	0.8912 ± 0.006
298.15 K, 101 kPa, x1 = 0.0001457	0.8921 ± 0.006
298.15 K, 101 kPa, x1 = 0.0001858	0.8928 ± 0.006
298.15 K, 101 kPa, x1 = 0.0002	0.8925 ± 0.025
298.15 K, 101 kPa, x1 = 0.0002277	0.8933 ± 0.006
298.15 K, 101 kPa, x1 = 0.00045	0.8973 ± 0.025
298.15 K, 101 kPa, x1 = 0.0004553	0.8967 ± 0.0061
298.15 K, 101 kPa, x1 = 0.000835	0.9028 ± 0.0065
298.15 K, 101 kPa, x1 = 0.0009102	0.904 ± 0.0061
298.15 K, 101 kPa, x1 = 0.00168	0.9204 ± 0.0066
298.15 K, 101 kPa, x1 = 0.001827	0.9238 ± 0.0066
303.15 K, 100 kPa, x1 = 0.000362	0.799 ± 0.009
303.15 K, 100 kPa, x1 = 0.00054	0.802 ± 0.01
303.15 K, 100 kPa, x1 = 0.00072	0.805 ± 0.01
303.15 K, 100 kPa, x1 = 0.0009	0.809 ± 0.01
303.15 K, 100 kPa, x1 = 0.00108	0.812 ± 0.01
303.15 K, 100 kPa, x1 = 0.00126	0.815 ± 0.01
303.15 K, 100 kPa, x1 = 0.00144	0.819 ± 0.01
308.15 K, 100 kPa, x1 = 0.000362	0.72 ± 0.009
308.15 K, 100 kPa, x1 = 0.00072	0.725 ± 0.009
308.15 K, 100 kPa, x1 = 0.00144	0.738 ± 0.009
308.15 K, 101 kPa, x1 = 0.0002	0.7216 ± 0.024
308.15 K, 101 kPa, x1 = 0.000508	0.7219 ± 0.0053
308.15 K, 101 kPa, x1 = 0.000835	0.7263 ± 0.0053
308.15 K, 101 kPa, x1 = 0.00106	0.7314 ± 0.0054
308.15 K, 101 kPa, x1 = 0.00168	0.7421 ± 0.0054
308.15 K, 101 kPa, x1 = 0.001827	0.7443 ± 0.0055
310.15 K, 101 kPa, x1 = 9.11e-06	0.6928 ± 0.0049
310.15 K, 101 kPa, x1 = 1.822e-05	0.6933 ± 0.0049
310.15 K, 101 kPa, x1 = 7.288e-05	0.6952 ± 0.0049
310.15 K, 101 kPa, x1 = 0.0001457	0.6977 ± 0.0049
310.15 K, 101 kPa, x1 = 0.0001858	0.6998 ± 0.0049
310.15 K, 101 kPa, x1 = 0.0002277	0.7014 ± 0.005
310.15 K, 101 kPa, x1 = 0.0004553	0.7104 ± 0.005
310.15 K, 101 kPa, x1 = 0.0009102	0.7283 ± 0.0051
313.15 K, 100 kPa, x1 = 0.000362	0.652 ± 0.008
313.15 K, 100 kPa, x1 = 0.00054	0.655 ± 0.008
313.15 K, 100 kPa, x1 = 0.00072	0.657 ± 0.008
313.15 K, 100 kPa, x1 = 0.0009	0.66 ± 0.008
313.15 K, 100 kPa, x1 = 0.00108	0.663 ± 0.008
313.15 K, 100 kPa, x1 = 0.00126	0.665 ± 0.008
313.15 K, 100 kPa, x1 = 0.00144	0.669 ± 0.008
318.15 K, 101 kPa, x1 = 0.0002	0.5982 ± 0.024
318.15 K, 101 kPa, x1 = 0.000508	0.6031 ± 0.0046
318.15 K, 101 kPa, x1 = 0.000835	0.6101 ± 0.0046
318.15 K, 101 kPa, x1 = 0.00106	0.6182 ± 0.0047
318.15 K, 101 kPa, x1 = 0.00139	0.6272 ± 0.0047
318.15 K, 101 kPa, x1 = 0.00168	0.6353 ± 0.0048
318.15 K, 101 kPa, x1 = 0.001827	0.6393 ± 0.0048

CCCCOC(C)=O + CCCCCCCCO
viscosity [mPa·s], 101 kPa
Settings	x2 = 0.085	x2 = 0.1729	x2 = 0.2638	x2 = 0.3579	x2 = 0.4554	x2 = 0.5564	x2 = 0.6611	x2 = 0.7698	x2 = 0.8827
298.15 K	0.884 ± 0.053	1.13 ± 0.068	–	1.808 ± 0.11	2.27 ± 0.14	2.845 ± 0.17	3.578 ± 0.22	4.535 ± 0.27	5.81 ± 0.35
303.15 K	0.813 ± 0.049	1.03 ± 0.062	1.298 ± 0.078	1.623 ± 0.098	2.017 ± 0.12	2.505 ± 0.15	3.119 ± 0.19	3.918 ± 0.24	4.98 ± 0.3
308.15 K	0.748 ± 0.045	0.938 ± 0.057	1.171 ± 0.071	1.453 ± 0.088	1.789 ± 0.11	2.197 ± 0.13	2.71 ± 0.16	3.378 ± 0.2	4.252 ± 0.26
313.15 K	0.689 ± 0.042	0.855 ± 0.052	1.059 ± 0.064	1.305 ± 0.079	1.591 ± 0.096	1.938 ± 0.12	2.372 ± 0.14	2.932 ± 0.18	3.66 ± 0.22

CCCCC[NH3+].O=[N+]([O-])[O-] + O
298 K, 101 kPa
Settings	viscosity [mPa·s]
x2 = 0.2	69.13 ± 2.4
x2 = 0.299	47.41 ± 1.4
x2 = 0.399	30.46 ± 0.85
x2 = 0.499	20.51 ± 0.53
x2 = 0.6	14.23 ± 0.35
x2 = 0.702	9.1 ± 0.21
x2 = 0.799	5.47 ± 0.12
x2 = 0.9	2.71 ± 0.06
x2 = 0.95	1.67 ± 0.04
